Reference: ChEMBL document CHEMBL5226342, “Novel Reversible-Binding PET Ligands for Imaging Monoacylglycerol Lipase Based on the Piperazinyl Azetidine Scaffold” (J Med Chem, 2021)
One block for each compound: values may come before it. Activity calls are given as the source filed them. The calls are words filed in the database; no cut-off is given here.

What was measured:
[1] = target: T1, Monoglyceride lipase (Mus musculus) (UniProt O35678); test: Irreversible inhibition of MAGL in mouse brain membrane fraction assessed as enzyme recovery by measuring FP-rhodamine reactivity at 50 nM preincubated for 30 mins followed by FP-rhodamine challenge for 5 to 180 mins by Activity-Based Protein Profiling analysis; assay type: cell membranes; details: time 35-210 min
T1 sequence (whole entry): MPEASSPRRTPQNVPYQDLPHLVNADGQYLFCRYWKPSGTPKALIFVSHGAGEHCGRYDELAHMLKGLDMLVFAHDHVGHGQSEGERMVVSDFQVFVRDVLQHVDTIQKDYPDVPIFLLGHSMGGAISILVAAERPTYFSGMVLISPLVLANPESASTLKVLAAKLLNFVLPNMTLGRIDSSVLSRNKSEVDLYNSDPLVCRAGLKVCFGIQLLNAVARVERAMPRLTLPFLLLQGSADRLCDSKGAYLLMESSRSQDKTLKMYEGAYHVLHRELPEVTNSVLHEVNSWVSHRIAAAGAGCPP

[2] = Lipophilicity, logD of the compound by shake flask method; assay type: physicochemical; details: octanol/water
[3] = target: T2, Monoglyceride lipase (Rattus norvegicus) (UniProt Q8R431); test: Binding affinity to MAGL in rat cerebellum incubated for 1 hr in presence of MAGL inhibitor, (1-(4-fluorophenyl)-1H-indol-5-yl)(3-(4-(pyrimidin-2-yl)piperazin-1-yl)azetidin-1-yl)methanone by autoradiography; assay type: tissue-based; details: tested as the 18F-labelled form
T2 sequence (whole entry): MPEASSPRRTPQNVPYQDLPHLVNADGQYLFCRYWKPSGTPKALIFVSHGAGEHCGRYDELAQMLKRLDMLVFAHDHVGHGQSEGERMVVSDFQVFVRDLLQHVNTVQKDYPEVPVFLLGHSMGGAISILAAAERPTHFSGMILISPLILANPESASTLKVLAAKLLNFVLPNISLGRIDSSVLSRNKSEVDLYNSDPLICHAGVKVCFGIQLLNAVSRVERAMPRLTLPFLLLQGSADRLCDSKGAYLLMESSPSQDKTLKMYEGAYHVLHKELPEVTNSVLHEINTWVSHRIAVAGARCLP

[4] = target: T3, Neutral cholesterol ester hydrolase 1 (Mus musculus) (UniProt Q8BLF1); test: Displacement of FP-rhodamine from KIAA1363 in mouse brain membrane fraction preincubated for 30 mins followed by FP-rhodhamine addition for 10 mins by Activity-Based Protein Profiling analysis; assay type: cell membranes; details: time 40.0 min
T3 sequence (whole entry): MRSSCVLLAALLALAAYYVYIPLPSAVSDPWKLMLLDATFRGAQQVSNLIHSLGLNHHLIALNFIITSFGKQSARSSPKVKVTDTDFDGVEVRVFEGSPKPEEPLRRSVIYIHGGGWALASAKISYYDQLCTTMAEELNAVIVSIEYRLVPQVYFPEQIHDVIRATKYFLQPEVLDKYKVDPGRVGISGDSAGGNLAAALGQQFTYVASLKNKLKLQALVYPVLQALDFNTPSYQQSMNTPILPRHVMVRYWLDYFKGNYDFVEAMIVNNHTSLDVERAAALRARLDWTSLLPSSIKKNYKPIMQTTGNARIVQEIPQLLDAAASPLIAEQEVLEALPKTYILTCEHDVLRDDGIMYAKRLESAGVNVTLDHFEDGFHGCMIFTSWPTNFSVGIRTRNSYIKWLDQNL

hERG (KCNH2) = hERG (KCNH2) (Homo sapiens, UniProt Q12809); test: Inhibition of human ERG at 10 uM; assay type: toxicity
[5] = target: T4, Monoacylglycerol lipase ABHD6 (Mus musculus) (UniProt Q8R2Y0); test: Displacement of FP-rhodamine from ABHD6 in mouse brain membrane fraction preincubated for 30 mins followed by FP-rhodhamine addition for 10 mins by Activity-Based Protein Profiling analysis; assay type: cell membranes; details: time 40.0 min
T4 sequence (whole entry): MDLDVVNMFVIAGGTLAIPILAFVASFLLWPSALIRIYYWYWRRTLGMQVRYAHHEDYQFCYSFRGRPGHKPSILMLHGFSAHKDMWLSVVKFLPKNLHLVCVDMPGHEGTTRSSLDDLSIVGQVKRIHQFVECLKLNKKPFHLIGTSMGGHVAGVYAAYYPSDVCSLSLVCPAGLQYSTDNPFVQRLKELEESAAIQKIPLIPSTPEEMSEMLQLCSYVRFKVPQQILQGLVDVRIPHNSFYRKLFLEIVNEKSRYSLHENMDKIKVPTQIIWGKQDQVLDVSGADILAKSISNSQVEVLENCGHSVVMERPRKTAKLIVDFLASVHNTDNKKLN

[6] = target: T2, Monoglyceride lipase (Rattus norvegicus); test: Binding affinity to MAGL in rat hippocampus incubated for 1 hr in presence of MAGL inhibitor, (1-(4-fluorophenyl)-1H-indol-5-yl)(3-(4-(pyrimidin-2-yl)piperazin-1-yl)azetidin-1-yl)methanone by autoradiography; assay type: tissue-based; details: tested as the 18F-labelled form
[7] = target: T5, Fatty-acid amide hydrolase 1 (Mus musculus) (UniProt O08914); test: Displacement of FP-rhodamine from FAAH in mouse brain membrane fraction preincubated for 30 mins followed by FP-rhodhamine addition for 10 mins by Activity-Based Protein Profiling analysis; assay type: cell membranes; details: time 40.0 min
T5 sequence (whole entry): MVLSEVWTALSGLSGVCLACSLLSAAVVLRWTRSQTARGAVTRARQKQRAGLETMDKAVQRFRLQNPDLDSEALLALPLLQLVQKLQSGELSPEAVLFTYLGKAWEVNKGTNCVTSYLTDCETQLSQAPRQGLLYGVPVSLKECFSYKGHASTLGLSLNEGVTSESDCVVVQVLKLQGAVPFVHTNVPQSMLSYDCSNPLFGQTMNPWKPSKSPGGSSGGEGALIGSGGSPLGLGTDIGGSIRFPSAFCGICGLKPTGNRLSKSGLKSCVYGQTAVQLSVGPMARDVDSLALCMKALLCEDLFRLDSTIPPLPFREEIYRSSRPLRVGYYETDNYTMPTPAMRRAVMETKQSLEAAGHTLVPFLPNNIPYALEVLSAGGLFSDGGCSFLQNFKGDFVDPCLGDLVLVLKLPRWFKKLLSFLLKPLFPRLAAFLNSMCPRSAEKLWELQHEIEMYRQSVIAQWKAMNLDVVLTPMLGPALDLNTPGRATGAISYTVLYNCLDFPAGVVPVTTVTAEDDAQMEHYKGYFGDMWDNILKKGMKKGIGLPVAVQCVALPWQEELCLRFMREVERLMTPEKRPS

[8] = target: T2, Monoglyceride lipase (Rattus norvegicus); test: Binding affinity to MAGL in rat thalamus incubated for 1 hr in presence of MAGL inhibitor, (1-(4-fluorophenyl)-1H-indol-5-yl)(3-(4-(pyrimidin-2-yl)piperazin-1-yl)azetidin-1-yl)methanone by autoradiography; assay type: tissue-based; details: tested as the 18F-labelled form
[9] = target: T1, Monoglyceride lipase (Mus musculus); details: Brain, Membrane, dose 50.0 nM, time 35-210 min
[10] = target: CaV1.2 (voltage-dependent L-type calcium channel subunit alpha-1C) (Homo sapiens, UniProt Q13936); test: Inhibition of human CaV1.2 at 10 uM
[11] = target: T2, Monoglyceride lipase (Rattus norvegicus); test: Binding affinity to MAGL in rat striatum incubated for 1 hr in presence of MAGL inhibitor, (1-(4-fluorophenyl)-1H-indol-5-yl)(3-(4-(pyrimidin-2-yl)piperazin-1-yl)azetidin-1-yl)methanone by autoradiography; assay type: tissue-based; details: tested as the 18F-labelled form
[12] = target: T2, Monoglyceride lipase (Rattus norvegicus); test: Binding affinity to MAGL in rat cortex incubated for 1 hr in presence of MAGL inhibitor, (1-(4-fluorophenyl)-1H-indol-5-yl)(3-(4-(pyrimidin-2-yl)piperazin-1-yl)azetidin-1-yl)methanone by autoradiography; assay type: tissue-based; details: tested as the 18F-labelled form
[13] = target: T6, Lysophosphatidylserine lipase ABHD12 (Mus musculus) (UniProt Q99LR1); test: Displacement of FP-rhodamine from ABHD12 in mouse brain membrane fraction preincubated for 30 mins followed by FP-rhodhamine addition for 10 mins by Activity-Based Protein Profiling analysis; assay type: cell membranes; details: time 40.0 min
T6 sequence (whole entry): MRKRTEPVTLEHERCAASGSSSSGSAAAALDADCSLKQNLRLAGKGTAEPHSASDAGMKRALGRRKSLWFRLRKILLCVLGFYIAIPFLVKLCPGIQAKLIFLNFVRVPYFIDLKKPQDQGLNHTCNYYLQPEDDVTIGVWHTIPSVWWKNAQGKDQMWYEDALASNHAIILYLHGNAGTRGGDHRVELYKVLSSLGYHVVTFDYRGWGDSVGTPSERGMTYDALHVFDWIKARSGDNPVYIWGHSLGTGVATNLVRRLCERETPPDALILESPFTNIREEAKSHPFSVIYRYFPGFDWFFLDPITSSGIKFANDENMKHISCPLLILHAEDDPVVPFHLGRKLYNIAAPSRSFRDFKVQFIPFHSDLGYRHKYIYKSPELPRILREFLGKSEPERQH

Chain of hERG (KCNH2) (Q12809 whole entry): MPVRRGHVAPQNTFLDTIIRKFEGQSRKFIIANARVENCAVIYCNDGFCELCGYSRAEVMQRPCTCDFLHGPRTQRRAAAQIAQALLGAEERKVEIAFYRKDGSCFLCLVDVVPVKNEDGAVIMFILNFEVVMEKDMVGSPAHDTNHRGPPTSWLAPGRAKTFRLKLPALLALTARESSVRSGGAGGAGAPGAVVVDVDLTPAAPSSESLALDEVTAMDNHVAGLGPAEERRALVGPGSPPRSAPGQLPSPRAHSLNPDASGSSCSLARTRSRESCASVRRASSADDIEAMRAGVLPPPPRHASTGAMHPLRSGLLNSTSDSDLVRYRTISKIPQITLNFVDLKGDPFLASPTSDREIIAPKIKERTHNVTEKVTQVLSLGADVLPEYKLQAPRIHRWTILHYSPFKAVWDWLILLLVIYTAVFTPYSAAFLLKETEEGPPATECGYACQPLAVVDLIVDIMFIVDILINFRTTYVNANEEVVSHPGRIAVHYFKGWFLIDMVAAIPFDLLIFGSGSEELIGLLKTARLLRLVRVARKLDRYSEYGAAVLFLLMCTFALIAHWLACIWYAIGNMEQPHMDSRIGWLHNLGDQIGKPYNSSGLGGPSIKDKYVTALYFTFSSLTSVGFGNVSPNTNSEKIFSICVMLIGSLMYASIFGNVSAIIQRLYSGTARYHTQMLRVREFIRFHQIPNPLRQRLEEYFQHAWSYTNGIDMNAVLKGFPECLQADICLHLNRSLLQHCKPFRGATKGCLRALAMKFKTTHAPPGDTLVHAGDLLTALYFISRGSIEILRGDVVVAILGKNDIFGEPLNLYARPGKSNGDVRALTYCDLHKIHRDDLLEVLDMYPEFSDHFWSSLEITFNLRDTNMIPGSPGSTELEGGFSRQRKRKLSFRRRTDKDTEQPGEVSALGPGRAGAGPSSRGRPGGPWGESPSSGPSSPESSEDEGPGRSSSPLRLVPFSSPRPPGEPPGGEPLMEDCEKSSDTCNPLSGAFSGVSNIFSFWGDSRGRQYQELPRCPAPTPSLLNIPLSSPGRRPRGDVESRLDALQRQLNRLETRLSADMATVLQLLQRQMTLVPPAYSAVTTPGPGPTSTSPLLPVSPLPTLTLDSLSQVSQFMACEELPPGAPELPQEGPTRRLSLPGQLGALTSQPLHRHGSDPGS
Chain of CaV1.2 (voltage-dependent L-type calcium channel subunit alpha-1C) (Q13936 whole entry): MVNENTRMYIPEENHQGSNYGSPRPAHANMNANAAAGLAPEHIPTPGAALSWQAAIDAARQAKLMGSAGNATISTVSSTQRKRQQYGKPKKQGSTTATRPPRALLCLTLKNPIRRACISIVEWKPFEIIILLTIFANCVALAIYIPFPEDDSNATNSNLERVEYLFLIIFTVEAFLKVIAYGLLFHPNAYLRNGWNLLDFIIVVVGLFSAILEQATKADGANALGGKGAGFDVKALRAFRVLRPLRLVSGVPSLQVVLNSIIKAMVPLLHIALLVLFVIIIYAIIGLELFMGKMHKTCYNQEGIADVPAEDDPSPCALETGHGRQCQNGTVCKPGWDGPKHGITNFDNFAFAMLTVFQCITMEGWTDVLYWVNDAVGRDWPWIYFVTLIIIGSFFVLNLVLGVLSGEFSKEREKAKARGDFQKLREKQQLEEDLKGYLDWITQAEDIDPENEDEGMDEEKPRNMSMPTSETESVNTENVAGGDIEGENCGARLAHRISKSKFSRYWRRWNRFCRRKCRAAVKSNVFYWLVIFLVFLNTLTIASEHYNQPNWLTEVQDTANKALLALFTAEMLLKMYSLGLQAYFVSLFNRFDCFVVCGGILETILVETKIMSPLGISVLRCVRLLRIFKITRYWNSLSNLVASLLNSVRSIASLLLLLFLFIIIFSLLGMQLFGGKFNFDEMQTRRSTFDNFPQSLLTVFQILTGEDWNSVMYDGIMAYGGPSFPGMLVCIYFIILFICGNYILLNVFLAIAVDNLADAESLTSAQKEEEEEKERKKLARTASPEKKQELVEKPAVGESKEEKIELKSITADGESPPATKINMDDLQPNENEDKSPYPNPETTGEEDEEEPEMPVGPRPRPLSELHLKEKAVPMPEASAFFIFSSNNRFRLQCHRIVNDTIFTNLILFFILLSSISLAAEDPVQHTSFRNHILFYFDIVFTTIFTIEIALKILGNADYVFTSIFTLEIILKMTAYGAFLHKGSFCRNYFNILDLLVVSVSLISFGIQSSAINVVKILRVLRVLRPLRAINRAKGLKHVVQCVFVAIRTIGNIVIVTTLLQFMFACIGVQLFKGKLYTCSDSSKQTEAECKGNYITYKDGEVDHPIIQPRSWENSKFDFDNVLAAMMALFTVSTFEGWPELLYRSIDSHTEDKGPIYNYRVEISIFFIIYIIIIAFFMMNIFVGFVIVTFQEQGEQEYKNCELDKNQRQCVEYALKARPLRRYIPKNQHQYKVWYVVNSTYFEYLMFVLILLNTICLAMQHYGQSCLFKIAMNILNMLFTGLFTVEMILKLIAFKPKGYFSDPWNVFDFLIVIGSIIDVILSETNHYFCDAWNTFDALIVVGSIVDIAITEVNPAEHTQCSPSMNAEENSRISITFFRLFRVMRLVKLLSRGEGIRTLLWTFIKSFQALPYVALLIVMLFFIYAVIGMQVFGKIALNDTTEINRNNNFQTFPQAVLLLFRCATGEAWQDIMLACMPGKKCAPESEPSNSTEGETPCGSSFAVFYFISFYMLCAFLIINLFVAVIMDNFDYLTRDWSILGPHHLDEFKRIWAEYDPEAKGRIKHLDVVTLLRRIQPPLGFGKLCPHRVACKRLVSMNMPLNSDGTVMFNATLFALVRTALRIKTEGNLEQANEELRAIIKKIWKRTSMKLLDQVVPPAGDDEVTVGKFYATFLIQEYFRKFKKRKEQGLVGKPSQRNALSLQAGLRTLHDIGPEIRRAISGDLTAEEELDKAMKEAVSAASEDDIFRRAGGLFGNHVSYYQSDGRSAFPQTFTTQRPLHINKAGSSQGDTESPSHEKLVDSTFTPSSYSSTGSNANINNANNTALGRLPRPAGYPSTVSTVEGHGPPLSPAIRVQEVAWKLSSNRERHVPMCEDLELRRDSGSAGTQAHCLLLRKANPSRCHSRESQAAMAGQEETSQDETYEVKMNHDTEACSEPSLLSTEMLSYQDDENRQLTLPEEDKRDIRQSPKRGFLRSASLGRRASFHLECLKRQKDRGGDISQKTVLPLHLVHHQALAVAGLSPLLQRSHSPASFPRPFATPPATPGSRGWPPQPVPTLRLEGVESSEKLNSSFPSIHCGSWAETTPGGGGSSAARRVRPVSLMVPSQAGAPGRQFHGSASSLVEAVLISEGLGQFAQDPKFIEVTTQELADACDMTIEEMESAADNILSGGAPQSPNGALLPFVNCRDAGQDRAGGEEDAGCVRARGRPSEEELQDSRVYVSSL

inhibition [1]: Active
SMILES: O=C(ON1C(=O)CCC1=O)N1CCN(C(c2ccc(Cl)cc2)c2ccc(Cl)cc2)CC1

SMILES: O=C(c1ccc2c(ccn2-c2ccc(F)cc2)c1)N1CC(N2CCN(c3ncccn3)CC2)C1
logD [2]: 3.68 | Activity [3]: inactive | inhibition [4]: inactive | inhibition at 10 µM (hERG (KCNH2)): < 50% | inhibition [5]: inactive | Activity [6]: inactive | inhibition [7]: inactive | Activity [8]: inactive | inhibition [9]: Active | inhibition at 10 µM [10]: < 50% | Activity [11]: inactive | Activity [12]: inactive | inhibition [13]: inactive
